Assays:
[1] = biological target: T1, Alpha-1D adrenergic receptor (Homo sapiens, UniProt P25100); assay type: cell membranes, HEK293, Membrane; details: hek293; further: in other assays of this panel Not Active means under 50% inhibition at 10 µM
T1 sequence (P25100 whole entry): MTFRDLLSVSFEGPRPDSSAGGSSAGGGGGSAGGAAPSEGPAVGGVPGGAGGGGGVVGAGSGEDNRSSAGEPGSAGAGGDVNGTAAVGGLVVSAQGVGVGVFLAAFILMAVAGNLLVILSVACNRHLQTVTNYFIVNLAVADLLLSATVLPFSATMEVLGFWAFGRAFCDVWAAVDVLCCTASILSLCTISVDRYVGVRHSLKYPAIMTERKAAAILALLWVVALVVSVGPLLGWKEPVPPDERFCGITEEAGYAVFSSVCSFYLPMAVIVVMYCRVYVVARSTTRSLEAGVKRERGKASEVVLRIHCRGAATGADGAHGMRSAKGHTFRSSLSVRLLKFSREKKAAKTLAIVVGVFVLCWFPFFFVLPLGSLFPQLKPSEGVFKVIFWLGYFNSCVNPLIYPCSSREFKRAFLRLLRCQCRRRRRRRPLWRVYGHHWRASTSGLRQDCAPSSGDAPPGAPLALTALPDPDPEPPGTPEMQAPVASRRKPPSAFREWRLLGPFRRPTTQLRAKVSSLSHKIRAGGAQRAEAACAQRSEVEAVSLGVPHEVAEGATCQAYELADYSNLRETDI

[2] = biological target: Aldo-keto reductase family 1 member B1 (Rattus norvegicus, UniProt P07943); assay: biochemical; assay type: tissue-based, Lens of camera-type eye;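 further: inhibition of aldose reductase enzyme activity, measured with DL-glyceraldehyde as the substrate; in other assays of this panel Not Active means under 50% inhibition at 10 µM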
[3] = DRUGMATRIX: ATPase, Na+/K+ enzyme inhibition (substrate: ATP); assay type: tissue-based, Sus scrofa, Heart; details: Not Active = under 50% inhibition at 10 µM
[4] = DRUGMATRIX: Calcium Channel Type L, Dihydropyridine radioligand binding (ligand: [3H] Nitrendipine); assay type: cell membranes, Rattus norvegicus, Wistar, Cerebral cortex, Membrane; details: Not Active = under 50% inhibition at 10 µM
[5] = DRUGMATRIX: Tumor Necrosis Factor (TNF), Non-Selective radioligand binding (ligand: [125I] TNF-alpha); assay type: cell membranes, Membrane; details: u-937; Not Active = under 50% inhibition at 10 µM
[6] = biological target: T2, Vasoactive intestinal polypeptide receptor 1 (Homo sapiens, UniProt P32241); assay type: cell membranes, Membrane; details: ht-29; further: in other assays of this panel Not Active means under 50% inhibition at 10 µM
T2 sequence (P32241 whole entry): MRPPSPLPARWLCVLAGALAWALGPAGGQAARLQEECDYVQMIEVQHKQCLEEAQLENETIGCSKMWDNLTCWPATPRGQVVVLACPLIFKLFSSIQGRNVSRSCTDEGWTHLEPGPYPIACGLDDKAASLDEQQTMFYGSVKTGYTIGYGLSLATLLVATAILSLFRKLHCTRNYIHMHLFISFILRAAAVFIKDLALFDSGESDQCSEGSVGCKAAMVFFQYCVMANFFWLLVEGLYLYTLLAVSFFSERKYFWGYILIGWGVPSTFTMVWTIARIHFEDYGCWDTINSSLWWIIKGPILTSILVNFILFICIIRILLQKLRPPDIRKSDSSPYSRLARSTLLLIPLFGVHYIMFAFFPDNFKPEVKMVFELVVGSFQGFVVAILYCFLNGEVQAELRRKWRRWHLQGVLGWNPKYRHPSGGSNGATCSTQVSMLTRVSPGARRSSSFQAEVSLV

[7] = DRUGMATRIX: Glutamate, Kainate radioligand binding (ligand: [3H] Kainic acid); assay type: cell membranes, Rattus norvegicus, Wistar, Brain, Membrane; details: Not Active = under 50% inhibition at 10 µM

CCOC(=O)[C@H](CCc1ccccc1)N[C@H]1CCc2ccccc2N(CC(=O)O)C1=O [BENAZEPRIL]
Not Active: IC50 [1] | IC50 [2] | IC50 [3] | Ki [3] | IC50 [4] | Ki [4] | IC50 [5] | Ki [5] | IC50 [6] | IC50 [7] | Ki [7]

Nc1c(CC(=O)O)cccc1C(=O)c1ccc(Br)cc1 [BROMFENAC]
Not Active: IC50 [1] | IC50 [2] | IC50 [3] | Ki [3] | IC50 [4] | Ki [4] | IC50 [5] | Ki [5] | IC50 [6] | IC50 [7] | Ki [7]

CCCCN1CCCCC1C(=O)Nc1c(C)cccc1C.Cl (stereo not given) [BUPIVACAINE HYDROCHLORIDE]
Not Active: IC50 [1] | IC50 [2] | IC50 [3] | Ki [3] | IC50 [4] | Ki [4] | IC50 [5] | Ki [5] | IC50 [6] | IC50 [7] | Ki [7]

C[C@@]12C(=O)OC(=O)[C@]1(C)[C@H]1CC[C@@H]2O1 [CANTHARIDIN]
Not Active: IC50 [1] | IC50 [2] | IC50 [3] | Ki [3] | IC50 [4] | Ki [4] | IC50 [5] | Ki [5] | IC50 [6] | IC50 [7] | Ki [7]

O=NN(CCCl)C(=O)NCCCl [CARMUSTINE]
Not Active: IC50 [1] | IC50 [2] | IC50 [3] | Ki [3] | IC50 [4] | Ki [4] | IC50 [5] | Ki [5] | IC50 [6] | IC50 [7] | Ki [7]

CC1=C(C(=O)O)N2C(=O)[C@@H](NC(=O)[C@H](N)c3ccccc3)[C@H]2SC1 [CEPHALEXIN ANHYDROUS]
Not Active: IC50 [1] | IC50 [2] | IC50 [3] | Ki [3] | IC50 [4] | Ki [4] | IC50 [5] | Ki [5] | IC50 [6] | IC50 [7] | Ki [7]

O=C(N[C@H](CO)[C@H](O)c1ccc([N+](=O)[O-])cc1)C(Cl)Cl [CHLORAMPHENICOL]
Not Active: IC50 [1] | IC50 [2] | IC50 [3] | Ki [3] | IC50 [4] | Ki [4] | IC50 [5] | Ki [5] | IC50 [6] | IC50 [7] | Ki [7]

ClC(Cl)Cl [CHLOROFORM]
Not Active: IC50 [1] | IC50 [2] | IC50 [3] | Ki [3] | IC50 [4] | Ki [4] | IC50 [5] | Ki [5] | IC50 [6] | IC50 [7] | Ki [7]

C=C1CC[C@H](O)C/C1=C/C=C1\CCC[C@]2(C)[C@@H]([C@H](C)CCCC(C)C)CC[C@@H]12 [CHOLECALCIFEROL]
Not Active: IC50 [1] | IC50 [2] | IC50 [3] | Ki [3] | IC50 [4] | Ki [4] | IC50 [5] | Ki [5] | IC50 [6] | IC50 [7] | Ki [7]

C[N+](C)(C)CCO.[Cl-] [CHOLINE CHLORIDE]
Not Active: IC50 [1] | IC50 [2] | IC50 [3] | Ki [3] | IC50 [4] | Ki [4] | IC50 [5] | Ki [5] | IC50 [6] | IC50 [7] | Ki [7]

CCOC(=O)C(C)(C)Oc1ccc(Cl)cc1 [CLOFIBRATE]
Not Active: IC50 [1] | IC50 [2] | IC50 [3] | Ki [3] | IC50 [4] | Ki [4] | IC50 [5] | Ki [5] | IC50 [6] | IC50 [7] | Ki [7]

CC(=O)OCC(=O)[C@@]1(O)CC[C@H]2[C@@H]3CCC4=CC(=O)CC[C@]4(C)[C@H]3C(=O)C[C@@]21C [CORTISONE ACETATE]
Not Active: IC50 [1] | IC50 [2] | IC50 [3] | Ki [3] | IC50 [4] | Ki [4] | IC50 [5] | Ki [5] | IC50 [6] | IC50 [7] | Ki [7]

O=c1ccc2ccccc2o1 [COUMARIN]
Not Active: IC50 [1] | IC50 [2] | IC50 [3] | Ki [3] | IC50 [4] | Ki [4] | IC50 [5] | Ki [5] | IC50 [6] | IC50 [7] | Ki [7]

C[C@@H]1C[C@@H]([C@H](O)CC2CC(=O)NC(=O)C2)C(=O)[C@@H](C)C1 [CYCLOHEXIMIDE]
Not Active: IC50 [1] | IC50 [2] | IC50 [3] | Ki [3] | IC50 [4] | Ki [4] | IC50 [5] | Ki [5] | IC50 [6] | IC50 [7] | Ki [7]

C/C=C/C[C@@H](C)[C@@H](O)[C@H]1C(=O)N[C@@H](CC)C(=O)N(C)CC(=O)N(C)[C@@H](CC(C)C)C(=O)N[C@@H](C(C)C)C(=O)N(C)[C@@H](CC(C)C)C(=O)N[C@@H](C)C(=O)N[C@H](C)C(=O)N(C)[C@@H](CC(C)C)C(=O)N(C)[C@@H](CC(C)C)C(=O)N(C)[C@@H](C(C)C)C(=O)N1C [CYCLOSPORINE]
Not Active: IC50 [1] | IC50 [2] | IC50 [3] | Ki [3] | IC50 [4] | Ki [4] | IC50 [5] | Ki [5] | IC50 [6] | IC50 [7] | Ki [7]

From ChEMBL document CHEMBL1909046, “DrugMatrix in vitro pharmacology data”
